Tests used:
Pseudomonas aeruginosa [1] = format: functional; settings: isolate Paebeta-24
Pseudomonas aeruginosa [2] = format: functional; settings: isolate Paebeta-25
Pseudomonas aeruginosa [3] = format: functional; settings: isolate Paebeta-26
Pseudomonas aeruginosa [4] = format: functional; settings: isolate Paebeta-27
Pseudomonas aeruginosa [5] = format: functional; settings: isolate Paebeta-28
Pseudomonas aeruginosa [6] = format: functional; settings: isolate Paebeta-29
Pseudomonas aeruginosa [7] = format: functional; settings: isolate Paebeta-30
Pseudomonas aeruginosa [8] = format: functional; settings: isolate Paebeta-22
Pseudomonas aeruginosa [9] = format: functional; settings: isolate Paebeta-21
Pseudomonas aeruginosa [10] = format: functional; settings: isolate Paebeta-20
Pseudomonas aeruginosa [11] = format: functional; settings: isolate Paebeta-19
Pseudomonas aeruginosa [12] = format: functional; settings: isolate Paebeta-18
Pseudomonas aeruginosa [13] = format: functional; settings: isolate Paebeta-17
Pseudomonas aeruginosa [14] = format: functional; settings: isolate Paebeta-16
Pseudomonas aeruginosa [15] = format: functional; settings: isolate Paebeta-15
Pseudomonas aeruginosa [16] = format: functional; settings: isolate Paebeta-14
Pseudomonas aeruginosa [17] = format: functional; settings: isolate Paebeta-13
Pseudomonas aeruginosa [18] = format: functional; settings: isolate Paebeta-12
Pseudomonas aeruginosa [19] = format: functional; settings: isolate Paebeta-11
Pseudomonas aeruginosa [20] = format: functional; settings: isolate Paebeta-10
Pseudomonas aeruginosa [21] = format: functional; settings: isolate Paebeta-09
Pseudomonas aeruginosa [22] = format: functional; settings: isolate Paebeta-08
Pseudomonas aeruginosa [23] = format: functional; settings: isolate Paebeta-07
Pseudomonas aeruginosa [24] = format: functional; settings: isolate Paebeta-06
Pseudomonas aeruginosa [25] = format: functional; settings: isolate Paebeta-05
Pseudomonas aeruginosa [26] = format: functional; settings: isolate Paebeta-04
Pseudomonas aeruginosa [27] = format: functional; settings: isolate Paebeta-03
Pseudomonas aeruginosa [28] = format: functional; settings: isolate Paebeta-02
Pseudomonas aeruginosa [29] = format: functional; settings: isolate Paebeta-01
Pseudomonas aeruginosa [30] = format: functional; settings: isolate Paebeta-31
Pseudomonas aeruginosa [31] = format: functional; settings: isolate Paebeta-32
Pseudomonas aeruginosa [32] = format: functional; settings: isolate Paebeta-01; remark: listed apart in the source
Pseudomonas aeruginosa [33] = format: functional; settings: isolate Paebeta-02; remark: listed apart in the source
Pseudomonas aeruginosa [34] = format: functional; settings: isolate Paebeta-03; remark: listed apart in the source
Pseudomonas aeruginosa [35] = format: functional; settings: isolate Paebeta-04; remark: listed apart in the source
Pseudomonas aeruginosa [36] = format: functional; settings: isolate Paebeta-05; remark: listed apart in the source
Pseudomonas aeruginosa [37] = format: functional; settings: isolate Paebeta-06; remark: listed apart in the source
Pseudomonas aeruginosa [38] = format: functional; settings: isolate Paebeta-07; remark: listed apart in the source
Pseudomonas aeruginosa [39] = format: functional; settings: isolate Paebeta-08; remark: listed apart in the source
Pseudomonas aeruginosa [40] = format: functional; settings: isolate Paebeta-09; remark: listed apart in the source
Pseudomonas aeruginosa [41] = format: functional; settings: isolate Paebeta-10; remark: listed apart in the source
Pseudomonas aeruginosa [42] = format: functional; settings: isolate Paebeta-11; remark: listed apart in the source
Pseudomonas aeruginosa [43] = format: functional; settings: isolate Paebeta-13; remark: listed apart in the source
Pseudomonas aeruginosa [44] = format: functional; settings: isolate Paebeta-14; remark: listed apart in the source
Pseudomonas aeruginosa [45] = format: functional; settings: isolate Paebeta-15; remark: listed apart in the source
Pseudomonas aeruginosa [46] = format: functional; settings: isolate Paebeta-16; remark: listed apart in the source
Pseudomonas aeruginosa [47] = format: functional; settings: isolate Paebeta-17; remark: listed apart in the source
Pseudomonas aeruginosa [48] = format: functional; settings: isolate Paebeta-18; remark: listed apart in the source
Pseudomonas aeruginosa [49] = format: functional; settings: isolate Paebeta-19; remark: listed apart in the source
Pseudomonas aeruginosa [50] = format: functional; settings: isolate Paebeta-20; remark: listed apart in the source
Pseudomonas aeruginosa [51] = format: functional; settings: isolate Paebeta-21; remark: listed apart in the source
Pseudomonas aeruginosa [52] = format: functional; settings: isolate Paebeta-22; remark: listed apart in the source
Pseudomonas aeruginosa [53] = format: functional; settings: isolate Paebeta-23
Pseudomonas aeruginosa [54] = format: functional; settings: isolate Paebeta-24; remark: listed apart in the source
Pseudomonas aeruginosa [55] = format: functional; settings: isolate Paebeta-25; remark: listed apart in the source
Pseudomonas aeruginosa [56] = format: functional; settings: isolate Paebeta-26; remark: listed apart in the source
Pseudomonas aeruginosa [57] = format: functional; settings: isolate Paebeta-27; remark: listed apart in the source
Pseudomonas aeruginosa [58] = format: functional; settings: isolate Paebeta-28; remark: listed apart in the source
Pseudomonas aeruginosa [59] = format: functional; settings: isolate Paebeta-29; remark: listed apart in the source
Pseudomonas aeruginosa [60] = format: functional; settings: isolate Paebeta-30; remark: listed apart in the source
Pseudomonas aeruginosa [61] = format: functional; settings: isolate Paebeta-31; remark: listed apart in the source
Pseudomonas aeruginosa [62] = format: functional; settings: isolate Paebeta-32; remark: listed apart in the source
Pseudomonas aeruginosa [63] = format: functional; settings: isolate Paebeta-23; remark: listed apart in the source
Pseudomonas aeruginosa [64] = test: microbe, parasite or virus in culture; settings: isolate Paebeta-12
Description: Antibacterial activity against mexB, mexY and mexD expressing Pseudomonas aeruginosa isolate Paebeta-12 harboring A residue at 105 position in PDC- 2 and polymorphic OprD gene by Etest method in presence of cloxacillin

Measured: MIC

CC(C)(O/N=C(\C(=O)N[C@@H]1C(=O)N2C(C(=O)[O-])=C(C[n+]3ccccc3)CS[C@H]12)c1csc(N)n1)C(=O)O [CEFTAZIDIME]
4 µg/mL: Pseudomonas aeruginosa [17] | Pseudomonas aeruginosa [35] | Pseudomonas aeruginosa [46] | Pseudomonas aeruginosa [49] | Pseudomonas aeruginosa [51] | Pseudomonas aeruginosa [55] | Pseudomonas aeruginosa [56] | Pseudomonas aeruginosa [57]
128 µg/mL: Pseudomonas aeruginosa [12]
1 µg/mL: Pseudomonas aeruginosa [50] | Pseudomonas aeruginosa [52] | Pseudomonas aeruginosa [64]
32 µg/mL: Pseudomonas aeruginosa [2] | Pseudomonas aeruginosa [3] | Pseudomonas aeruginosa [9] | Pseudomonas aeruginosa [14] | Pseudomonas aeruginosa [15] | Pseudomonas aeruginosa [25] | Pseudomonas aeruginosa [26] | Pseudomonas aeruginosa [30] | Pseudomonas aeruginosa [31] | Pseudomonas aeruginosa [36] | Pseudomonas aeruginosa [48]
16 µg/mL: Pseudomonas aeruginosa [4] | Pseudomonas aeruginosa [5] | Pseudomonas aeruginosa [8] | Pseudomonas aeruginosa [16] | Pseudomonas aeruginosa [18] | Pseudomonas aeruginosa [19] | Pseudomonas aeruginosa [20] | Pseudomonas aeruginosa [21] | Pseudomonas aeruginosa [22] | Pseudomonas aeruginosa [23] | Pseudomonas aeruginosa [24] | Pseudomonas aeruginosa [27] | Pseudomonas aeruginosa [54] | Pseudomonas aeruginosa [61]
2 µg/mL: Pseudomonas aeruginosa [34] | Pseudomonas aeruginosa [37] | Pseudomonas aeruginosa [38] | Pseudomonas aeruginosa [39] | Pseudomonas aeruginosa [40] | Pseudomonas aeruginosa [41] | Pseudomonas aeruginosa [42] | Pseudomonas aeruginosa [44] | Pseudomonas aeruginosa [58]
8 µg/mL: Pseudomonas aeruginosa [6] | Pseudomonas aeruginosa [7] | Pseudomonas aeruginosa [10] | Pseudomonas aeruginosa [11] | Pseudomonas aeruginosa [28] | Pseudomonas aeruginosa [29] | Pseudomonas aeruginosa [32] | Pseudomonas aeruginosa [33] | Pseudomonas aeruginosa [45] | Pseudomonas aeruginosa [47] | Pseudomonas aeruginosa [53] | Pseudomonas aeruginosa [59] | Pseudomonas aeruginosa [60] | Pseudomonas aeruginosa [62]
0.12 µg/mL: Pseudomonas aeruginosa [43]
64 µg/mL: Pseudomonas aeruginosa [1] | Pseudomonas aeruginosa [13] | Pseudomonas aeruginosa [63]

CO/N=C(\C(=O)N[C@@H]1C(=O)N2C(C(=O)[O-])=C(C[N+]3(C)CCCC3)CS[C@H]12)c1csc(N)n1
128 µg/mL: Pseudomonas aeruginosa [12] | Pseudomonas aeruginosa [15]
64 µg/mL: Pseudomonas aeruginosa [1] | Pseudomonas aeruginosa [4] | Pseudomonas aeruginosa [27]

C[C@@H](O)[C@H]1C(=O)N2C(C(=O)O)=C(S[C@@H]3CN[C@H](C(=O)N(C)C)C3)[C@H](C)[C@H]12 [MEROPENEM]
32 µg/mL: Pseudomonas aeruginosa [1] | Pseudomonas aeruginosa [6] | Pseudomonas aeruginosa [9] | Pseudomonas aeruginosa [48] | Pseudomonas aeruginosa [59]
4 µg/mL: Pseudomonas aeruginosa [3] | Pseudomonas aeruginosa [5] | Pseudomonas aeruginosa [8] | Pseudomonas aeruginosa [11] | Pseudomonas aeruginosa [14] | Pseudomonas aeruginosa [16] | Pseudomonas aeruginosa [28] | Pseudomonas aeruginosa [33] | Pseudomonas aeruginosa [34] | Pseudomonas aeruginosa [40] | Pseudomonas aeruginosa [41] | Pseudomonas aeruginosa [45] | Pseudomonas aeruginosa [47] | Pseudomonas aeruginosa [49] | Pseudomonas aeruginosa [50] | Pseudomonas aeruginosa [56] | Pseudomonas aeruginosa [58]
16 µg/mL: Pseudomonas aeruginosa [26] | Pseudomonas aeruginosa [31] | Pseudomonas aeruginosa [35] | Pseudomonas aeruginosa [51] | Pseudomonas aeruginosa [54] | Pseudomonas aeruginosa [63]
1 µg/mL: Pseudomonas aeruginosa [52]
2 µg/mL: Pseudomonas aeruginosa [37] | Pseudomonas aeruginosa [38] | Pseudomonas aeruginosa [39] | Pseudomonas aeruginosa [42] | Pseudomonas aeruginosa [43] | Pseudomonas aeruginosa [44] | Pseudomonas aeruginosa [46] | Pseudomonas aeruginosa [64]
8 µg/mL: Pseudomonas aeruginosa [2] | Pseudomonas aeruginosa [7] | Pseudomonas aeruginosa [10] | Pseudomonas aeruginosa [13] | Pseudomonas aeruginosa [15] | Pseudomonas aeruginosa [17] | Pseudomonas aeruginosa [18] | Pseudomonas aeruginosa [19] | Pseudomonas aeruginosa [20] | Pseudomonas aeruginosa [21] | Pseudomonas aeruginosa [22] | Pseudomonas aeruginosa [23] | Pseudomonas aeruginosa [24] | Pseudomonas aeruginosa [25] | Pseudomonas aeruginosa [27] | Pseudomonas aeruginosa [29] | Pseudomonas aeruginosa [30] | Pseudomonas aeruginosa [32] | Pseudomonas aeruginosa [36] | Pseudomonas aeruginosa [53] | Pseudomonas aeruginosa [55] | Pseudomonas aeruginosa [60] | Pseudomonas aeruginosa [61] | Pseudomonas aeruginosa [62]

Reference: ChEMBL document CHEMBL1649267, “Molecular epidemiology and mechanisms of carbapenem resistance in Pseudomonas aeruginosa” (2009)
